Reference: article PMC11413853, “Discovery of VU6007496: Challenges in the Development of an M1 Positive Allosteric Modulator Backup Candidate” (ACS Chemical Neuroscience, 2024)

How the values were obtained:
[1] = Predicted hepatic clearance, dog; assay type: in vitro ADME
Procedure: The diluted fraction unbound (fu2) in brain was calculated in the same manner by using brain homogenate rather than plasma. Undiluted fraction unbound for the brain was calculated using […]
Equation 5 Determination of fraction unbound in brain. Fu2 represents the diluted fraction […]
Intrinsic clearance: Human or rat hepatic microsomes (0.5 mg/mL) and 1 µM test compound were incubated in 100 mM potassium phosphate pH 7.4 buffer with 3 mM MgCl2 at 37 °C with constant shaking. After a 5 min preincubation, the reaction was initiated by the addition of NADPH (1 mM). At selected time intervals (0, 3, 7, 15, 25, and 45 min), aliquots were taken and subsequently placed into a 96-well plate containing cold acetonitrile with internal standard (50 ng/mL carbamazepine). Plates were then centrifuged at 3000 rcf (4 °C) for 10 min, and the supernatant was transferred to a separate 96-well plate and diluted 1:1 with water for LC/MS/MS analysis. The in vitro half-life ( 1/2, min, Eq. 1), intrinsic clearance (CLint, mL/min/kg, Eq. 2), and subsequent predicted hepatic clearance (CLhep, mL/min/kg, Eq. 3) was determined employing the […]
Samples were analyzed on a Thermo Electron TSQ Quantum Ultra triple quad mass spectrometer (San Jose, CA) via electrospray ionization (ESI) with two Themo Electron Accella pumps (San Jose, CA), and a Leap Technologies CTC PAL autosampler (Carrboro, NC). […]

[2] = Hepatocyte MET ID, monkey; assay type: in vitro ADME; conditions: 4-h incubation
From the text: (§1) More concerning were the results generated via outsourced multispecies hepatocyte MET ID, which were drastically different than the liver S9MET ID. The extent of metabolism for VU6007496 with rat, dog, monkey and human hepatocytes was 64.7, 51.5, 63.9 and 99.5%, respectively (Figure 8). […] In human hepatocytes, PAM 11 was metabolized primarily to Metabolite A (24), the result of oxidative N-demethylation of the southern pyrazole. The other minor metabolites were oxidation on the tetrahydropyran moiety and included ring opening (Metabolite F, 25).[21]

Adenosine A2A = assay: Eurofins radioligand binding; set-up: species or system Human; conditions: specific binding
Adenosine A3 = assay: Eurofins radioligand binding; set-up: species or system Human; conditions: specific binding
Purinergic P2X = assay: Eurofins radioligand binding; set-up: species or system Rat; conditions: specific binding
[3] = tested on: Leukotriene, Cysteinyl CysLT1; assay: Eurofins radioligand binding; set-up: species or system Human; conditions: specific binding
[4] = tested on: Glutamate, NMDA, Phencyclidine; assay: Eurofins radioligand binding; set-up: species or system Rat; conditions: specific binding
Estrogen ERα = assay: Eurofins radioligand binding; set-up: species or system Human; conditions: specific binding
CYP1A2 = assay: CYP induction (mRNA) in cryopreserved human hepatocytes, CYP1A2; assay type: in vitro ADME; conditions: three donors
From the text: To advance 11 as a candidate and into IND-enabling studies, we next needed to better understand its CYP profile to minimize drug–drug interactions in the clinic. […] We were pleased to see the contribution of another CYP beyond 3A4 for the metabolism of 11.[21] In parallel, we investigated the ability of PAM 11 to induce the expression of CYP450s (measuring mRNA) in cryopreserved human hepatocytes from three separate donors.

Hepatocyte MET ID, human = assay type: in vitro ADME; conditions: 4-h incubation
From the text: as §1

Muscarinic M2 = assay: Eurofins radioligand binding; set-up: species or system Human; conditions: specific binding
Adrenergic α1D = assay: Eurofins radioligand binding; set-up: species or system Human; conditions: specific binding
Histamine H1 = assay: Eurofins radioligand binding; set-up: species or system Human; conditions: specific binding
[5] = tested on: 68 GPCRs, ion channels and transporters; assay: Lead Profiling Screen, radioligand displacement (panel summary); assay type: binding; conditions: 10 μM; all 68 targets
Procedure: In a 4-strain Ames assay, with and without S9, both 11 and 12 were negative.
Table S1. Eurofins Lead Profiling Screen Data
This is a radioligand binding panel of 67 targets including GPCRs, ion channels, transporters and nuclear hormones. Biochemical assay results are presented as the percent inhibition of specific binding at a 10 μM concentration of VU6007496 (Compound 11).
Target/Protein Species % Inhibition at
Androgen (Testosterone) Human -24
Calcium Channel L-Type, Rat 12
Calcium Channel L-Type, Rat -8
Calcium Channel N-Type Rat 8
Epidermal Growth Factor (EGF) Human 5
GABAA, Flunitrazepam, Central Rat -3
GABAA, Muscimol, Central Rat -1
Glutamate, Kainate Rat -19
Glutamate, NMDA, Agonism Rat 0
Glutamate, NMDA, Glycine Rat 0
Glutamate, NMDA, Phencyclidine Rat 7
Imidazoline I2, Central Rat -9

Muscarinic M3 = assay: Eurofins radioligand binding; set-up: species or system Human; conditions: specific binding
Potassium Channel [KATP] = assay: Eurofins radioligand binding; set-up: species or system Hamster; conditions: specific binding

SMILES | Predicted CLhep, dog [1] | extent of metabolism, monkey hepatocytes [2] | % Inhibition at 10 µM (Adenosine A2A) | % Inhibition at 10 µM (Adenosine A3) | % Inhibition at 10 µM (Purinergic P2X) | % Inhibition at 10 µM [3] | % Inhibition at 10 µM [4] | % Inhibition at 10 µM (Estrogen ERα) | CYP1A2 induction (mRNA) (CYP1A2) | extent of metabolism, human hepatocytes (Hepatocyte MET ID, human) | % Inhibition at 10 µM (Muscarinic M2) | % Inhibition at 10 µM (Adrenergic α1D) | % Inhibition at 10 µM (Histamine H1) | radioligand displacement, Lead Profiling Screen [5] | % Inhibition at 10 µM (Muscarinic M3) | % Inhibition at 10 µM (Potassium Channel [KATP])
Cn1ccc(-c2ccc(Cc3cc(C(=O)NC4CCOCC4)nc4ccsc34)cc2)n1 [compound 12] | 16 mL/min/kg | – | – | – | – | – | – | – | – | – | – | – | – | – | – | –
Cn1ccc(-c2ccc(Cc3cc(C(=O)NC4CCOCC4)nc4ccn(C)c34)cc2)n1 [compound 11] | 14 mL/min/kg | 63.9% | -11% | 38% | 17% | 3% | 7% | 5% | ~3 fold | 99.5% | 0% | -6% | 5% | < 50% | -4% | 11%
